Target: T1, Protein farnesyltransferase (Homo sapiens, UniProt P49354+P49356)
Assay: Inhibitory activity against human farnesyltransferase
Format: protein-complex assay

| Compound | IC50 [nM] |
| --- | --- |
| O=C(CC1CN(C2c3ccc(Cl)cc3CCc3cc(Br)cnc32)CCN1C(=O)CCc1ccccc1)NCc1cccnc1 (stereo not drawn) | 960 |
| CNC(=O)C1CN(C2c3ccc(Cl)cc3CCc3cc(Br)cnc32)CCN1C(=O)Cc1ccc(Cl)cc1 (stereo not drawn) | 100 |
| O=C(CC1CN(C2c3ccc(Cl)cc3CCc3cc(Br)cnc32)CCN1C(=O)Cc1ccncc1)NC1CC1 (stereo not drawn) | 70 |
| O=C(NCc1cccnc1)C1CCCN(C2c3ccc(Cl)cc3CCc3cc(Br)cnc32)C1 (stereo not drawn) | 120 |
| O=C(NCc1cccnc1)C1CN(C2c3ccc(Cl)cc3CCc3cc(Br)cnc32)CCN1C(=O)CCc1ccccc1 (stereo not drawn) | 30 |
| O=C(NCC1CC1)C1CN(C2c3ccc(Cl)cc3CCc3cc(Br)cnc32)CCN1C(=O)Cc1ccncc1 (stereo not drawn) | 50 |

Target: T1, Protein farnesyltransferase
Assay: Inhibitory activity in COS cell Ha-Ras processing assay
Format: functional, cell-based, Chlorocebus aethiops

| IC50 [nM] | Compound |
| --- | --- |
| 2000 | O=C(CC1CN(C2c3ccc(Cl)cc3CCc3cc(Br)cnc32)CCN1C(=O)CCc1ccccc1)NCc1cccnc1 (stereo not drawn) |
| 2000 | O=C(NCc1cccnc1)C1CCCN(C2c3ccc(Cl)cc3CCc3cc(Br)cnc32)C1 (stereo not drawn) |

Source: ChEMBL document CHEMBL1141236, “Surfing the piperazine core of tricyclic farnesyltransferase inhibitors” (Bioorg Med Chem Lett, 2005)
